The compounds below were run on ovalbumin-induced eosinophil induction (eosinophils in BAL fluid) (assay: Rat Ovalbumin Model (ovalbumin-induced airway cell proliferation and inflammation)). Details: ability to prevent ovalbumin-induced eosinophil induction (percentage of eosinophils in BAL fluid); test compounds dosed orally at 5 mg/kg twice daily, days 5-12; samples 24 hours after last OVA challenge.
Assay type: in vivo, Brown Norway rats
Method: Complete protocol details can be found in Eynott et al. (2003. J. Pharmacol. Ther. 304:22-29). Briefly, Brown Norway rats are sensitized on days 1, 2, and 3 with intraperitoneal (i.p.) injections of lmg ovalbumin (OVA) and 100 mg Al(OH)3 in 1 mL 0.9% NaCl saline. They are then exposed to either 0.9% NaCl saline or 1% OVA aerosol every 3rd day (days 6, 9, & 12) for 30 minutes. 2 mg/kg dexamethasone is used as a positive control and is dosed i.p. once a day on days 4, 5, 6, 9, & 12. Vehicle (15% β-cyclodextrins in DMSO) and test compounds are dosed orally twice a day on days 5-12. On challenge days, all animals are treated 1 hour prior to OVA allergen exposure and, if required for twice a day treatment, ˜4-8 hours after allergen exposure. Samples are collected 24 hours after the last OVA challenge. For sample collection, rats are anaesthetized by administration of 10 mg/kg xylazine and 60 mg/kg ketamine intraperitoneally. Once the rats were fully anesthetized, blood is collected for serum via the retro-orbital route. The rats are subsequently perfused by injecting 30 mL PBS through the right ventricle of the heart after the abdominal aorta is severed. A tracheostomy is then performed and bronchoalveolar lavage fluid (BAL) is collected through five 5 mL rinses using Hank's Balanced Salt Solution, which was kept on ice. Airway inflammatory cell accumulation and proliferation of cells are measured through the BAL fluid collection and subsequent cell counts. Cytospin slides are prepared and eosinophil % are determined by counting ˜400 cells per slide. The test compounds are dosed at 5 mg/kg twice daily. Activity is scored based on the ability of the test compound to prevent ovalbumin-induced eosinophil induction (as determined by percentage of eosinophils in BAL fluid).

| SMILES | Activity (P < 0.05) |
| --- | --- |
| Cc1cc2c(CC(=O)O)c(C)n(Cc3nc4ccccc4s3)c2cc1Cl [[1-(1,3-benzothiazol-2-ylmethyl)-6-chloro-2,5-dimethyl-1H-indol-3-yl]acetic acid] | no |
| Cc1c(CC(=O)O)c2cc(F)c(Cl)cc2n1Cc1nc2ccccc2s1 [[1-(1,3-benzothiazol-2-ylmethyl)-6-chloro-5-fluoro-2-methyl-1H-indol-3-yl]acetic acid] | no |
| COc1cc2c(CC(=O)O)c(C)n(Cc3nc4ccccc4s3)c2cc1Cl [[1-(1,3-benzothiazol-2-ylmethyl)-6-chloro-5-methoxy-2-methyl-1H-indol-3-yl]acetic acid] | no |
| COc1cc2c(CC(=O)O)c(C)n(Cc3cccc(Br)c3)c2cc1Cl [[1-(3-bromobenzyl)-6-chloro-5-methoxy-2-methyl-1H-indol-3-yl]acetic acid] | no |
| COc1cc2c(CC(=O)O)c(C)n(Cc3cc(Cl)cc(Cl)c3)c2cc1Cl [[6-chloro-1-(3,5-dichlorobenzyl)-5-methoxy-2-methyl-1H-indol-3-yl]acetic acid] | no |
| COc1cc2c(CC(=O)O)c(C)n(Cc3cccc(Cl)c3)c2cc1Cl [[6-chloro-1-(3-chlorobenzyl)-5-methoxy-2-methyl-1H-indol-3-yl]acetic acid] | no |
| Cc1c(CC(=O)O)c2c(Cl)cc(Cl)cc2n1Cc1cccc(OC(F)(F)F)c1 [{4,6-dichloro-2-methyl-1-[3-(trifluoromethoxy)benzyl]-1H-indol-3-yl}acetic acid] | no |
| Cc1c(CC(=O)O)c2cc(Cl)c(Cl)cc2n1Cc1cccc(OC(F)(F)F)c1 [{5,6-dichloro-2-methyl-1-[3-(trifluoromethoxy)benzyl]-1H-indol-3-yl}acetic acid] | no |
| Cc1cc2c(CC(=O)O)c(C)n(Cc3cccc(OC(F)(F)F)c3)c2cc1Cl [{6-chloro-2,5-dimethyl-1-[3-(trifluoromethoxy)benzyl]-1H-indol-3-yl}acetic acid] | yes |
| Cc1cc2c(CC(=O)O)c(C)n(Cc3cccc(C(F)(F)F)c3)c2cc1Cl [{6-chloro-2,5-dimethyl-1-[3-(trifluoromethyl)benzyl]-1H-indol-3-yl}acetic acid] | no |
| Cc1c(CC(=O)O)c2cc(F)c(Cl)cc2n1Cc1cccc(OC(F)(F)F)c1 [{6-chloro-5-fluoro-2-methyl-1-[3-(trifluoromethoxy)benzyl]-1H-indol-3-yl}acetic acid] | no |
| COc1cc2c(CC(=O)O)c(C)n(Cc3cccc(OC(F)(F)F)c3)c2cc1Cl [{6-chloro-5-methoxy-2-methyl-1-[3-(trifluoromethoxy)benzyl]-1H-indol-3-yl}acetic acid] | yes |
| COc1cc2c(CC(=O)O)c(C)n(Cc3cccc(C(F)(F)F)c3)c2cc1Cl [{6-chloro-5-methoxy-2-methyl-1-[3-(trifluoromethyl)benzyl]-1H-indol-3-yl}acetic acid] | no |
